Reference: article PMC8778300 (Molecules, 2022)

How the values were obtained:
human recombinant ALDH2 [1] = molecular target: T1, human recombinant ALDH2 (Homo sapiens, UniProt P05091); assay: ALDH enzyme inhibition assay (ALDH2), diaphorase/resorufin fluorescence; assay type: biochemical; details: average of at least two experiments ± standard error; 100 µM acetaldehyde, 500 µM NAD+; 20 min preincubation; NI = no inhibition up to 0.5 mM; read-out: IC50 (µM) ± SE (ALDH2)
T1 sequence (P05091 18-517): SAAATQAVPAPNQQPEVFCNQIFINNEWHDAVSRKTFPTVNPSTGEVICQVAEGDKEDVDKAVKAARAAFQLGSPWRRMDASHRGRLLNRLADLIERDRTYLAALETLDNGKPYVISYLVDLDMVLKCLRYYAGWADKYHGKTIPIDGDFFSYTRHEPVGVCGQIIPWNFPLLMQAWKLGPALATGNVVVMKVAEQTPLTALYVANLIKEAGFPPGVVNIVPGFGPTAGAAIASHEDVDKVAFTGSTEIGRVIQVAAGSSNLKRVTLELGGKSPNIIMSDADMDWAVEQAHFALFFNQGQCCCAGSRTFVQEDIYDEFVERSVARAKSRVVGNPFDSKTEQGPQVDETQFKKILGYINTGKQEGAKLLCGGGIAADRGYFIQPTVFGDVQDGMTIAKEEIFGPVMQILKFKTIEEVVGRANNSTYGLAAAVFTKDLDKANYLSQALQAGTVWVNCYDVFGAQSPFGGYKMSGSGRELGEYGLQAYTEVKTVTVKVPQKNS
Procedure: (§1) The inhibitory activity of the thiuram disulfide (4) was evaluated in vitro against human recombinant ALDH1a1 and ALDH2, as shown in Figure 3 and Table 1.
(§2) All tested compounds were prepared as 100 mM stock solutions in DMSO. […] Five µL of desalted enzyme […] Five µL of reaction buffer were also added to the “no enzyme” background control wells. The test compounds were added to the assay wells. The reaction plate was then centrifuged briefly at 1200 rpm, then incubated for 20 min at RT. […] The reaction plate was briefly centrifuged and incubated at RT for 60 min. Ten µL of detection reagent composed of 15 µg/mL diaphorase and […] were added. The reaction plate was briefly centrifuged and incubated for a further 10 min at RT in the dark.

[2] = molecular target: T2, human recombinant ALDH1a1 (Homo sapiens, UniProt P00352); assay: ALDH enzyme inhibition assay (ALDH1a1), diaphorase/resorufin fluorescence; assay type: biochemical; details: for IC50: read-out: IC50 (µM) ± SE (ALDH1a1); for fold reduction of ALDH1a1 inhibitory activity: relative to compound (2)
T2 sequence (P00352 1-501): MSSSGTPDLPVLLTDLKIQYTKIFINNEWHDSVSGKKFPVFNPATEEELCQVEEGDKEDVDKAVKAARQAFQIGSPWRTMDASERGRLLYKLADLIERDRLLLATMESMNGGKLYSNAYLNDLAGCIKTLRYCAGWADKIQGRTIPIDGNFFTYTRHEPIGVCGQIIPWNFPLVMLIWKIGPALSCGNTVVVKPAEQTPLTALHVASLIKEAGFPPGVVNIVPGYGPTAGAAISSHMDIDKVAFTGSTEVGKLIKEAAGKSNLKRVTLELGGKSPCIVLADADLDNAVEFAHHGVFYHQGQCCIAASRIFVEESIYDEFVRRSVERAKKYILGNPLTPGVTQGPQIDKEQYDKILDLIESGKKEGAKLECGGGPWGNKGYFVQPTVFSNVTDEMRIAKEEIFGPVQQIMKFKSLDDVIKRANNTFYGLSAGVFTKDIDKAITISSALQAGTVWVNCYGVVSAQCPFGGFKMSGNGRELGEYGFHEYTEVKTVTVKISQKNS
Procedure: as §1, §2

human recombinant ALDH2 [3] = molecular target: T1, human recombinant ALDH2; details: previously reported; cited from earlier work
[4] = average of at least two experiments ± standard error, 250 µM acetaldehyde, 500 µM NAD+, 20 min preincubation, NI = no inhibition up to 0.5 mM

| SMILES | IC50 (human recombinant ALDH2 [1]) [µM] | IC50 [2, 4] [µM] | IC50 against ALDH2 (human recombinant ALDH2 [3]) | fold reduction of ALDH1a1 inhibitory activity [2] | IC50 (µM) ± SE (ALDH1a1) [2, 4] |
| --- | --- | --- | --- | --- | --- |
| CCN(Cc1ccc(F)cc1)C(=S)SSC(=S)N(CC)Cc1ccc(F)cc1 [Compound 2] | > 500 | 0.17 ± 0.06 | no inhibition |  |  |
| CCN(Cc1cccc(F)c1)C(=S)SSC(=S)N(CC)Cc1cccc(F)c1 [Compound 4a, bis(N-3-Fluorobenzylethylthiocarbamoyl)disulphide] | > 500 | 0.31 ± 0.14 |  | 2 fold |  |
| CCN(Cc1ccccc1F)C(=S)SSC(=S)N(CC)Cc1ccccc1F [Compound 4b, bis(N-2-Fluorobenzylethylthiocarbamoyl)disulphide] | > 500 | 0.59 ± 0.46 |  | 3.5 fold |  |
| CCN(Cc1ccc(Cl)cc1)C(=S)SSC(=S)N(CC)Cc1ccc(Cl)cc1 [Compound 4c, bis(N-4-Chlorobenzylethylthiocarbamoyl)disulphide] | > 500 | 0.86 ± 0.68 |  | five |  |
| CCN(Cc1ccc(C(F)(F)F)cc1)C(=S)SSC(=S)N(CC)Cc1ccc(C(F)(F)F)cc1 [Compound 4d, bis(N-4-trifluoromethylbenzylethylthiocarbamoyl)disulphide] | > 500 | > 500 |  |  | completely inactive |
| CCN(Cc1ccc(OC)cc1)C(=S)SSC(=S)N(CC)Cc1ccc(OC)cc1 [Compound 4e] | > 500 | 0.58 ± 0.41 |  |  |  |
| CCN(Cc1ccncc1)C(=S)SSC(=S)N(CC)Cc1ccncc1 [Compound 4f, bis(N-(4-pyridylmethyl)ethylthiocarbamoyl)disulphide] | > 500 | 5.76 ± 4.01 |  | more than 33 fold |  |
| CCN(Cc1ccco1)C(=S)SSC(=S)N(CC)Cc1ccco1 [Compound 4g, bis(N-(2-furylmethyl)ethylthiocarbamoyl)disulphide] | 200 | 0.39 ± 0.27 |  |  |  |
| CCN(Cc1cccs1)C(=S)SSC(=S)N(CC)Cc1cccs1 [Compound 4h, bis(N-(2-thienylmethyl)ethylthiocarbamoyl)disulphide] | > 500 | 0.39 ± 0.31 |  |  |  |
| CCN(Cc1ccsc1)C(=S)SSC(=S)N(CC)Cc1ccsc1 [Compound 4i, bis(N-(3-thienylmethyl)ethylthiocarbamoyl)disulphide] | > 500 | 0.17 ± 0.1 |  |  |  |
